Legend:
[1] = in vivo; cited from earlier work
[2] = system: ERK1/2; experiment: ERK1/2 phosphorylation in SHSY5Y cells; format: cell-based, human; conditions: 10 μM ibogaine 3 hours, U0126 20 μM, PD98059 40 μM 30 minutes or PI-PLC 0.3 unit/ml 1 h pre-incubation
Method: ERK2 and pERK1/2 were detected by Western blot analysis with anti-ERK2 and pERK1/2 antibodies respectively. Line-graph depicts the mean ratio (pERK2/ERK2)±SD of 3 experiments. […] Panel C: Cells were pre-incubated with 0.3 unit/ml PI-PLC for 1 h (lane 3).

[3] = system: BDNF; experiment: BDNF expression in vivo (RT-PCR of tissue punches); design: species or system mouse; conditions: C57 mice, voluntary consumption of 10% ethanol for 2 weeks
Excerpt: The primers for NGF were designed as follows: […]

[4] = system: NGF; conditions: C57 mice, voluntary ethanol consumption, striatum and PFC
Method: Adult male C57B1/6 mice were decapitated 3 hours after the start of the dark cycle, for mice with access to ethanol, or 6 hours following i.p. injection of vehicle or Tat-RACK1 (4 mg/kg), for naïve animals. Brains were rapidly removed and bilateral tissue punches of the striatum and PFC were frozen in liquid nitrogen. BDNF, NGF and GPDH expression were analyzed by RT-PCR as described above for hippocampal cultures. The primers for NGF were designed as follows: […]

[5] = system: primary hippocampal neurons; experiment: RACK1 / Tat-RACK1 nuclear localization in primary hippocampal neurons (confocal microscopy); format: cell-based, rat; conditions: 100 mM ethanol 30 minutes
Method: Primary hippocampal neurons were washed in cold PBS containing 0.1% Triton X-100, fixed in cold methanol and blocked in PBS containing 0.1% Triton X-100 and 3% Normal Goat Serum. lrmunostaining was performed with monoclonal monoclonal IgG HA antibodies (1:150). Staining was detected with anti FITC antibodies (1:500). Nuclei were detected with the nuclear marker TOTO-3 (1: 10000). Slides were viewed with a laser scanning confocal microscope (Zeiss LSM 510 Meta). Z-field images were processed by obtaining the middle Z field sections using LSM 5 Image Browse (Scion Corporation) and Adobe Photoshop (Adobe Systems Inc.). For immunocytochemistry used to detect the presence of Tat-RACK1 in the brain, C57 mice were injected i.p. with vehicle or 4 mg/kg Tat-RACK1. Animals were decapitated 4 hours post injection and brains were quickly removed and frozen at −50° C. in isopentane. Slide-mounted saggital striatal sections ([…]) were immersed for 10 minutes in cold (−20° C.) mixture of 75% methanol and 25% acetone, re-hydrated, rinsed in PBS and incubated in 10% normal donkey serum. Rat monoclonal anti-HA antibody (1:2,000 in PBS) was applied overnight in a humid chamber. […]

[6] = system: BDNF; experiment: BDNF expression in primary hippocampal cultures (RT-PCR); format: cell-based, rat; conditions: primary hippocampal neurons
Method: Sprague-Dawley rats (P0) were decapitated and hippocampi were dissected bilaterally. Cells were dissociated by enzyme digestion with papain followed by brief mechanical trituration and plated on poly-D-lysine treated flasks. Cells were plated (1×10^6 cells/chamber) and maintained in Neurobasal media supplemented with B27, penicillin, streptomycin and Glutamax-1 and maintained in culture for 3 weeks. Following treatment, total RNAs were isolated using Trizol reagent and reverse transcribed (RT) using the Reverse Transcription System kit. The RT products were used for analysis of the expression of BDNF and the control gene […] (GPDH) by polymerase chain reaction (PCR) described in (Yaka et al. (2003) J. Biol. Chem. 278: 9630-9638). The PCR products were photographed by Eagle Eye II (Stratagene), and quantified by using NIH Image 1.61.

[7] = system: tyrosine hydroxylase (TH); experiment: Tyrosine hydroxylase (TH) protein levels in SHSY5Y cells; format: cell-based, human
Method: Panel A: SHSY5Y cells were treated with different concentrations (0, 10, 25, and 100 mM) of ethanol for 24 hours. TH protein levels and control Actin levels were determined by Western blot analysis. Histogram depicts the mean ratio (TI/actin)±SD of 3 experiments. Panel B: Cells were treated with media (control), 100 ng/ml of GDNF for 12 h (lane 1), 100 mM ethanol for 24 hours (lane 2), or 100 mM ethanol for 24 hours to which 100 ng/ml GDNF was added for the last 12 hours (lane 3). The cells were lysed for Western blot analysis. Histogram depicts the mean ratio (TH/actin)±SD of 3 experiments. […] Histogram depicts the mean ratio (TH/actin)±SD of 3 experiments.

[8] = system: Long Evans rats; experiment: Ethanol self-administration in rats after intracerebroventricular (i.c.v.) microinjections; format: in vivo, rat; conditions: i.c.v. microinjection, intake 24 hours after treatment
Method: Adult male Long Evans rats were trained in the two-bottle choice ethanol self-administration procedure as described above for mice. Three weeks after ethanol exposure commenced, a 26 gauge cannula was placed into the right lateral ventricle (stereotaxic coordinates AP: −0.8, ML: −1.4, DV: −3.6, relative to bregma) of anesthetized subjects. Three weeks later, subjects received weekly i.c.v. microinjections of vehicle, Tat-RACK1, or the Tat-peptide (injection volume […]) at approximately 15:30, or 3.5 hours before lights out. Intake was measured 24 hours after treatment. All subjects received vehicle and Tat-RACK1 injections; a subset of subjects was also injected with the Tat-peptide. Cannula locations were verified histologically at the conclusion of the experiment.

[9] = system: BDNF; experiment: BDNF secretion from dissociated hippocampal neurons (ELISA); format: cell-based, rat; conditions: 1 μM, 6 hours
Method: BDNF or NGF secretion was measured in media from dissociated hippocampal neurons or from striatal slices using Emax ImmunoAssay according to (Balkowiec and Katz (2000) J. Neurosci., 20: 7417-7423)) and (Heaton et al. (2003) Brain Res. Dev. Brain Res. 140: 237-252), respectively. BDNF or NGF concentrations were interpolated from the standard curves (linear range of 7.8-500 pg/ml).

[10] = biological target: T1, Trk receptor (Rattus norvegicus, UniProt Q63604); experiment: Trk phosphorylation in striatal slices (Western blot); format: cell-based; conditions: 1 μM Tat-RACK1 together with 200 nM K252a, 4 hours
T1 construct: from tissue; host or cells: striatal slices (dorsal striatum and NAc) of Sprague-Dawley rats
Method: Coronal striatal slices ([…]) were prepared from 3-4 week old male Sprague-Dawley rats. Slices were maintained for at least 1 hour in artificial cerebrospinal fluid (αCSF) containing (in mM): 126 NaCl, 1.2 KCl, 1.2 NaH2PO4, 0.01 MgCl2, 2.4 CaCl2, 18 NaHCO3 and 11 glucose saturated with 95% O2/5% CO2 at […]. […] Brain homogenates were prepared after in vivo protein transduction. Adult C57B1/6 mice were injected i.p. with vehicle or 4 mg/kg of Tat-RACK1. Four hours later, brains were immediately removed and homogenized and protein extracts were prepared as described above.
Samples ([…]) were resolved on a 10% SDS-PAGE and transferred to a nitrocellulose membrane. Membranes were probed with the appropriate antibodies and immunoreactivity was detected with enhanced chemilluminescence (Amersham Bioscience) and processed using the STORM system (Molecular Dynamic).

[11] = system: C57B1/6 mice or BDNF+/+ and BDNF± mice; experiment: Ethanol self-administration in mice (two-bottle choice); format: in vivo, mouse; conditions: for ethanol consumption: wildtype mice
Method: Voluntary ethanol intake in singly-housed adult male C57B1/6 mice or BDNF+/+ and BDNF±mice was established by placing a bottle containing 10% ethanol in tap water (v/v) on the home cage next to an identical bottle filled with tap water for at least 1 month. Only subjects that consumed at least 40% of their total fluid volume as ethanol were included in these studies. All injections (PBS/10% glycerol vehicle, Tat-KEP27, K252a and/or Tat-RACK1) were conducted at 15:00 hours; ethanol and water intake were measured 18 hours later at 09:00 hours. Treatments were tested using a within-subjects design; subjects received one or two injections per week. Chemicals were administered in injection volumes of 1-3 ml per 100 g body weight. The effect of a deprivation period on consumption was tested by allowing mice continuous access to a bottle of 20% ethanol in tap water and a bottle of tap water on the home cage for 2 weeks. The ethanol bottle was removed for 2 weeks. Intake of 20% ethanol and of water was measured for 4 days after the ethanol was reintroduced.

T1 sequence (Q63604 32-821): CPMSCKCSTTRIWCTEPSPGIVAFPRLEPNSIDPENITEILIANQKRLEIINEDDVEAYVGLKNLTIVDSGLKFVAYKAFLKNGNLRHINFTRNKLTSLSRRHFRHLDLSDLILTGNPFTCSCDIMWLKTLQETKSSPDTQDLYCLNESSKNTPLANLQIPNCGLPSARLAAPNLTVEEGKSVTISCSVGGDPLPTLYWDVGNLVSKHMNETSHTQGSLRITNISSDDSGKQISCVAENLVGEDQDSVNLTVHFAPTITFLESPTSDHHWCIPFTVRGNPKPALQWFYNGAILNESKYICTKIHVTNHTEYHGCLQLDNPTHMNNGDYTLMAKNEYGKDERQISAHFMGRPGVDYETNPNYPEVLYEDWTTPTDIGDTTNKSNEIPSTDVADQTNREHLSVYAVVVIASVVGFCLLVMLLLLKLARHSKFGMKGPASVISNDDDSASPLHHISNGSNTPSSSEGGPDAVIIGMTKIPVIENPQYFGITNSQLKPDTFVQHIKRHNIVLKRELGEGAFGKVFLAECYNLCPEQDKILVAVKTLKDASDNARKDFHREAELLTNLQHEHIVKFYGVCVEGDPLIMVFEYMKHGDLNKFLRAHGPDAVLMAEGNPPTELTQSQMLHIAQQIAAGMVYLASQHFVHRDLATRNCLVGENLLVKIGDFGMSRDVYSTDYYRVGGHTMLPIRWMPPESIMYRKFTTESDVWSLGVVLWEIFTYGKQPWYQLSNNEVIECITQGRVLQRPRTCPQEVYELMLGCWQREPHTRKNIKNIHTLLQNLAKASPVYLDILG

Which “metabolite detection after ibogaine administration” value [1] does the source give for `CC[C@H]1C[C@H]2C[C@H]3c4[nH]c5ccc(O)cc5c4CCN(C2)[C@@H]13` [Noribogaine] here?
Its value is “detected at high concentrations within 24 hours after administration”.

Which “ERK1/2 phosphorylation induced by ibogaine” value [2] does the source give for `N#CC(=C(/N)Sc1ccccc1N)/C(C#N)=C(\N)Sc1ccccc1N` [U0126] here?
Its value is “blocked”.

Which “expression levels of BDNF in the prefrontal cortex (PFC)” value [3] does the source give for `CCO` [ethanol] here?
The value was “but not the prefrontal cortex”.

What about the “expression levels of BDNF in the striatum” value [3] of the same molecule?
The value was “significantly increased”.

What about the “expression of NGF” value [4] of the same molecule?
The value was “no change”.

And the RACK1 nuclear translocation [5]?
The RACK1 nuclear translocation was “translocation of RACK1 into the nucleus”.

And the “ethanol concentrations (as low as) that increased BDNF expression” value ([6]; 0.5 hours)?
The value was 10 to 25 mM.

And the “expression levels of BDNF” value ([6]; acute ethanol, dose- and time-dependent)?
Its value is “increased”.

What about the BDNF expression ([6]; continuous ethanol 24 or 48 hours) of the same molecule?
The BDNF expression was “reduced BDNF expression to below basal levels”.

And the “ethanol concentration resulting in an increase in TH immunoreactivity (as low as)” value [7]?
The value was 10 mM.

And the “protein level of TH” value ([7]; ethanol 24 hours, dose-dependent)?
The value was “significant increase”.

For YGRKKRRQRRR [Tat-peptide], which ethanol intake [8] is on record?
The ethanol intake was “no effect”.

And the “secretion of BDNF” value [9]?
The value was “no change”.

With `COc1cccc(-c2cc(=O)c3ccccc3o2)c1N` [PD98059] as the molecule, how does the “ERK1/2 phosphorylation induced by ibogaine” value [2] read?
The value was “blocked”.

Which results are given for `COC(=O)[C@@]1(O)C[C@H]2O[C@]1(C)n1c3ccccc3c3c4c(c5c6ccccc6n2c5c31)C(=O)NC4` [K252a]?
Tat-RACK1-induced Trk phosphorylation [10]: reduced; reduction in ethanol intake by Tat-RACK1, co-injection with K252a ([11]; mice, Tat-RACK1 4 mg/kg + K252a): prevented the reduction in ethanol intake; ethanol consumption ([11]; K252a 5 mg/kg i.p.): increased; ethanol consumption ([11]; K252a 25 mg/kg i.p.): increased

B1: GDNF: Human glial-cell line derived neurotrophic factor (protein)
chain: SPDKQMAVLPRRERNRQAAAANPENSRGKGRRGQRGKNRGCVLTAIHLNVTDLGLGYETKEELIFRYCSGSCDAAETTYDKILKNLSRNRRLVSDKVGQACCRPIAFDDDLSFLDDNLVYHILRKHSAKRCGCI
With B1 as the molecule, how does the “ethanol-induced increase in TH immunoreactivity” value ([7]; 100 mM ethanol 24 hours, GDNF 100 ng/ml or ibogaine 10 μM added for last 12 hours) read?
The value was “inhibited”.

Source: US20050203011A1, “Mitigating symptoms and behaviors of substance abuse by modulating GDNF or BDNF pathway activity” (The Regents of the University of California, priority 2003, published 2005)
